Measured values from paper PMC2990756, “Quantitative High-Throughput Screening Identifies 8-Hydroxyquinolines as Cell-Active Histone Demethylase Inhibitors” (PLoS ONE, 2010).
Like-named read-outs stand apart in the source and are kept apart here.

Key:
Assay type in all cases: biochemical
[1] = molecular target: T1, JMJD2E (KDM4E) (Homo sapiens, UniProt B2RXH2); assay: qHTS fluorescence FDH-coupled JMJD2E demethylase assay
T1 construct: The catalytic domain of human JMJD2E (residues 1–337); His6 (N); made in house; host or cells: E. coli
T1 sequence (B2RXH2 1-337): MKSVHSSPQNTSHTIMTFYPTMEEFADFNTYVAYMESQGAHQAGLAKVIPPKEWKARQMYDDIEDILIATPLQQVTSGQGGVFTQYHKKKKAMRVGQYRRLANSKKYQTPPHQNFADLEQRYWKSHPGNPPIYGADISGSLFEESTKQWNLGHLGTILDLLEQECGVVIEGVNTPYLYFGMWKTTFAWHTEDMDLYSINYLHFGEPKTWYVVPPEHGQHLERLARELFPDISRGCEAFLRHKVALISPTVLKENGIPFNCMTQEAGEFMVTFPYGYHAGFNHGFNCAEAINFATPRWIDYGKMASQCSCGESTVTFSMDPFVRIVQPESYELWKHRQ

[2] = molecular target: T2, formaldehyde dehydrogenase (FDH) (Pseudomonas putida, UniProt P46154); assay: FDH coupling enzyme counterscreen; settings: Table S1, FDH counterscreen; for IC50: unit not in table, from Figure 2, read-out: qHTS Data: jmjd2e fdh IC50
T2 construct: purchased Sigma-Aldrich
T2 sequence (P46154 whole entry): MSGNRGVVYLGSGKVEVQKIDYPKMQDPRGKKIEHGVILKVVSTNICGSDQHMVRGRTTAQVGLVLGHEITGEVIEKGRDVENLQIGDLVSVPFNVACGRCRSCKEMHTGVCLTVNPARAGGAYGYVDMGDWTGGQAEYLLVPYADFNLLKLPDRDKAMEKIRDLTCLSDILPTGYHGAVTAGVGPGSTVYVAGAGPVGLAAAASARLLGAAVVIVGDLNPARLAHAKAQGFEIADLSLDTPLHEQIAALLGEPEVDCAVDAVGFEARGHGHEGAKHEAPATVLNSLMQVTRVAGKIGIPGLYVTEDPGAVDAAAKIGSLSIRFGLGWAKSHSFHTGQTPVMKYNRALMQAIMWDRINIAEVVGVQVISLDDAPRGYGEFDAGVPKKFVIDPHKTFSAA
Text: Dimethylsulfoxide certified ACS grade (DMSO) was from Fisher, Inc. HEPES buffer was obtained from Gibco. […] Black solid-bottom 1,536-well assay plates were from Greiner Bio-One (Monroe, NC).

[3] = molecular target: T3, JMJD2E (Homo sapiens, UniProt B2RXH2); assay: JMJD2E FDH-coupled assay under low and high iron conditions (iron chelation profile); design: The catalytic domain of human JMJD2E (residues 1–337); His6 (N); made in house; host or cells: E. coli; settings: Table S1; for IC50: unit not in table, from Figure 2
T3 sequence (B2RXH2 1-337): T1 sequence (B2RXH2 1-337)
Experimental: The prioritized compounds were also evaluated in the screening assay using two different ferrous ion concentrations (termed high iron and low iron, respectively), in order to assess their propensity for iron chelation.
The ratio of IC50 values under high iron to low iron was calculated for each compound.

[4] = Table S1, unit not in table, from Figure 2, read-out: qHTS Data: jmjd2e IC50
[5] = low iron 2.5 µM FAS, read-out: qHTS Data: jmjd2e fas2.5um IC50
[6] = high iron, head says 20 µM FAS, read-out: qHTS Data: jmjd2e fas20um IC50

Row | SMILES | IC50 [1, 4] [µM] | qHTS Data: jmjd2e fdh CurveClass [2] | qHTS Data: jmjd2e fas20um CurveClass ([3]; high iron) | IC50 [3, 5] [µM] | IC50 [2] [µM] | IC50 [3, 6] [µM] | IC50 ([1]; Figure 3, substituted 8-hydroxyquinolines against JMJD2E, read-out: IC50 /μM (qHTS IC50, FDH-coupled assay)) [µM] | qHTS Data: jmjd2e fas2.5um Curve comment ([3]; low iron 2.5 µM FAS)
1 | C[C@@H]1Cc2c(O)c(O)cc(O)c2C(=O)O1 [compound 26657786] | 2 | Inactive | Inactive | 3.55 | – | – | – | –
2 | COc1cc(/C=N/Nc2nncn2N)ccc1OCc1c(C)no[n+]1[O-] [compound 26657989] | 0.5 | Inactive | Inactive | 4.47 | – | – | – | –
3 | O=C(CCc1ccccc1)NCC(=O)N/N=C/c1ccc(O)cc1O [compound 26660953] | 6.31 | Poor quality curve | – | 4.47 | 17.8 | 4.47 | – | –
4 | CC(C)c1ccccc1NC(=O)CNCCc1ccc(C(F)(F)F)cc1.O=C(O)C(=O)O [compound 26661422] | 3.16 | Inactive | Inactive | 28.2 | – | – | – | –
5 | C/C(=N\Nc1ccc2nncn2n1)c1ccccn1 [compound 26664046] | 10 | Poor quality curve | – | 8.91 | 35.5 | 8.91 | – | –
6 | O=Cc1ccc(O)c2ncccc12 [compound 26664581] | 3.16 | Inactive | Poor quality curve | 7.08 | – | 56.2 | 3.2 | –
7 | O=c1c(O)cccc2cc(O)c(O)c(O)c12 [compound 26665710] | 7.94 | Poor quality curve | – | 2.24 | 6.31 | 12.6 | – | –
8 | O=c1cc2c(=O)oc3cc(O)c(O)oc3c2c(O)c1O [compound 26666750] | 3.98 | Inactive | – | 1.78 | – | 15.8 | – | –
9 | COc1ccc(Cn2c(O)c(/C=N/NC(=O)c3ccncc3)c(=O)[nH]c2=O)cc1 [compound 26667135] | 7.94 | Poor quality curve | – | 8.91 | 14.1 | 8.91 | – | –
10 | Cc1cccc(OCC(=O)NCC(=O)N/N=C/c2ccc(O)cc2O)c1 [compound 26671311] | 3.16 | Poor quality curve | Inactive | 4.47 | 0.25 | – | – | –
11 | O=C1C=C(O)c2cccc(O)c2C1=O [compound 26724134] | 7.94 | Inactive | – | 14.1 | – | 19.9 | – | Poor quality curve
12 | N#C/C(=C\c1cc(O)c(O)c(O)c1)C(N)=O [compound 26725225] | 1 | Poor quality curve | – | 2.24 | 39.8 | 8.91 | – | –
13 | O=C(/C=C/c1ccccc1)NC(=S)NNC(=O)c1cnccn1 [compound 26725782] | 8.91 | Poor quality curve | – | 7.08 | 35.5 | 7.08 | – | –
14 | O=c1cnnc(N/N=C/c2ccccn2)[nH]1 [compound 26726276] | 3.55 | Inactive | Inactive | 6.31 | – | – | – | –
15 | COC(=O)c1ccc(=O)c2nc3/c(=C/O)c(O)cc(=O)c3[nH]c12 [compound 26732584] | 8.91 | Inactive | Inconclusive | 2.24 | – | – | – | –
16 | O=C(O)c1cc(O)c(O)c(O)c1 [compound 26747307] | 0.35 | Poor quality curve | – | 0.13 | 31.6 | 17.8 | – | –
17 | CC1=CC(=O)c2c(O)cccc2C1=O [compound 26747815] | 8.91 | Poor quality curve | – | 2.24 | 17.8 | 12.6 | – | –
